Measured values from PMC3083694, “Effects of Intermediates between Vitamins K2 and K3 on Mammalian DNA Polymerase Inhibition and Anti-Inflammatory Activity” (International Journal of Molecular Sciences, 2011).

Tests used:
[1] = biological target: T1, Bovine deoxyribonuclease I (Bos taurus, UniProt P00639); assay: DNA metabolic enzyme assay, bovine deoxyribonuclease I; assay type: biochemical; details: other DNA metabolic enzyme; read-out: IC50 Value of MK-2, Bovine deoxyribonuclease I
T1 construct: purchased
Experimental: (§1) Pols from mammals, a fish (cherry salmon), an insect (fruit fly) and a plant (cauliflower) were purified, and prokaryotic pols and other DNA metabolic enzymes, such as T7 RNA polymerase, T4 polynucleotide kinase and bovine deoxyribonuclease I, were purchased as described in our previous report. The activities of all pols and other DNA metabolic enzymes were measured as described in previous reports.

Mouse DNA polymerase ι = biological target: T2, Mouse DNA polymerase ι (Mus musculus, UniProt Q6R3M4); assay: DNA polymerase activity assay, mouse pol ι; assay type: biochemical; details: Y-family pol; read-out: IC50 Value of MK-2, Mouse DNA polymerase ι
T2 construct: made in house
Experimental: as §1
(§2) The components of the pol assay were poly(dA)/oligo(dT)18 and dTTP as the DNA template-primer and 2′-deoxyribonucleoside 5′-triphosphate (dNTP) substrate, respectively. VK2, VK3, and their synthesized derivatives (i.e., MK-3, MK-2 and MK-1) were dissolved in dimethyl sulfoxide (DMSO) at various concentrations and sonicated for 30 s. The sonicated samples (4 μL) were mixed with 16 μL of each pol enzyme (final amount, 0.05 units) in 50 mM Tris-HCl (pH 7.5) containing 1 mM dithiothreitol, 50% glycerol and 0.1 mM EDTA, and kept at 0 °C for 10 min. […] Activity without the inhibitor was considered to be 100%, and the activity remaining at each concentration of inhibitor was determined relative to this value. […]

[2] = biological target: Cauliflower DNA polymerase α (Brassica oleracea var. botrytis, UniProt A0A0D3D890); assay: DNA polymerase activity assay, cauliflower pol α; assay type: biochemical; details: plant pol; read-out: IC50 Value of MK-2, Cauliflower DNA polymerase α
Experimental: as §1, §2

[3] = biological target: T3, Fruit fly DNA polymerase δ (Drosophila melanogaster, UniProt P54358); assay: DNA polymerase activity assay, fruit fly pol δ; assay type: biochemical; details: insect pol; read-out: IC50 Value of MK-2, Fruit fly DNA polymerase δ
T3 construct: made in house
Experimental: as §1, §2

Taq DNA polymerase = biological target: T4, Taq DNA polymerase (Thermus aquaticus, UniProt P19821); assay: DNA polymerase activity assay, Taq pol; assay type: biochemical; details: prokaryotic pol; incubated at 74 °C; read-out: IC50 Value of MK-2, Taq DNA polymerase
T4 construct: purchased
Experimental: as §1, §2

T4 DNA polymerase = biological target: T5, T4 DNA polymerase (Enterobacteria phage T4, UniProt P04415); assay: DNA polymerase activity assay, T4 pol; assay type: biochemical; details: prokaryotic pol; read-out: IC50 Value of MK-2, T4 DNA polymerase
T5 construct: purchased
Experimental: as §1, §2

T7 RNA polymerase = biological target: T6, T7 RNA polymerase (Escherichia phage T7, UniProt P00573); assay: DNA metabolic enzyme assay, T7 RNA polymerase; assay type: biochemical; details: other DNA metabolic enzyme; read-out: IC50 Value of MK-2, T7 RNA polymerase
T6 construct: purchased
Experimental: as §1

[4] = tested on: LPS-induced TNF-α production in serum; assay: In vivo LPS-induced inflammatory experiment, serum TNF-α; set-up: species or system mouse; details: female C57BL/6 mice; 100 mg/kg BW intraperitoneal, 30 min before LPS 250 μg/kg BW i.p.; serum 1 h after LPS
Experimental: All animal studies were performed according to the guidelines outlined in the “Care and Use of Laboratory Animals” of Kobe University. The animals were anesthetized with pentobarbital before undergoing cervical dislocation. Female 8-week-old C57BL/6 mice that had been bred in-house with free access to food and water were used for all experiments. All of the mice were maintained under a 12-h light/dark cycle and housed at a room temperature of 25 °C.
Mice were intraperitoneally injected with 200 μL of MK-2 dissolved in corn oil at 100 mg/kg body weight (BW), or 200 μL of corn oil as a vehicle control. After 30 min, the mice were intraperitoneally injected with 200 μL of 250 μg/kg BW LPS dissolved in PBS or 200 μL of PBS as a vehicle control. After 1 h, the mice were killed, and blood samples were collected. The blood serum was separated by centrifugation at 15,000 × g for 10 min at 4 °C, and the TNF-α level in the serum was measured by ELISA.

Rat DNA polymerase β = biological target: T7, Rat DNA polymerase β (Rattus norvegicus, UniProt P06766); assay: DNA polymerase activity assay, rat pol β; assay type: biochemical; details: X-family pol; read-out: IC50 Value of MK-2, Rat DNA polymerase β
T7 construct: made in house
Experimental: as §1, §2

Human DNA polymerase ɛ = biological target: T8, Human DNA polymerase ɛ (Homo sapiens, UniProt Q07864); assay: DNA polymerase activity assay, human pol ɛ; assay type: biochemical; details: B-family pol; read-out: IC50 Value of MK-2, Human DNA polymerase ɛ
T8 construct: made in house
Experimental: as §1, §2

E. coli DNA polymerase I = biological target: T9, E. coli DNA polymerase I (Escherichia coli, UniProt P00582); assay: DNA polymerase activity assay, E. coli pol I; assay type: biochemical; details: prokaryotic pol; read-out: IC50 Value of MK-2, E. coli DNA polymerase I
T9 construct: purchased
Experimental: as §1, §2

T2 sequence (Q6R3M4 whole entry): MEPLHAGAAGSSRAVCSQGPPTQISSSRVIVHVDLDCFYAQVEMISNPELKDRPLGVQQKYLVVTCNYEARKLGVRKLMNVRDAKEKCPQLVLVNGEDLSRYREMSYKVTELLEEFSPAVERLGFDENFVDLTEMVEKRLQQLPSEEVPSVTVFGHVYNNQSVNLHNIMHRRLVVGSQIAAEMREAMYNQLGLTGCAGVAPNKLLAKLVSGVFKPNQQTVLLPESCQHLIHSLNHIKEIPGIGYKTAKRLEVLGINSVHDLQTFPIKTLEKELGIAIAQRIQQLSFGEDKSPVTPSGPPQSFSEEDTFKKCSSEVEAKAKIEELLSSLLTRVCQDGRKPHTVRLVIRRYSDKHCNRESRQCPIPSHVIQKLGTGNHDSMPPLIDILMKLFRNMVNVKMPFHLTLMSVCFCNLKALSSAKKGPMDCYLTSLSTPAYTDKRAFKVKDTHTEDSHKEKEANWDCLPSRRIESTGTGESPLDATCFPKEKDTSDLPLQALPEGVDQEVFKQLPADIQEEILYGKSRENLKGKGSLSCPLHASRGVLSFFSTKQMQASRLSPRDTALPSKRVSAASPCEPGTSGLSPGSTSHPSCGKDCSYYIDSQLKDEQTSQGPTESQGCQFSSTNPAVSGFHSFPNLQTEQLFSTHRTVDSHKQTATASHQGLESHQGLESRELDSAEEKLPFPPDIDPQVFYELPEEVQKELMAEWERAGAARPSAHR
Sequence of Cauliflower DNA polymerase α (A0A0D3D890 entry or part of it): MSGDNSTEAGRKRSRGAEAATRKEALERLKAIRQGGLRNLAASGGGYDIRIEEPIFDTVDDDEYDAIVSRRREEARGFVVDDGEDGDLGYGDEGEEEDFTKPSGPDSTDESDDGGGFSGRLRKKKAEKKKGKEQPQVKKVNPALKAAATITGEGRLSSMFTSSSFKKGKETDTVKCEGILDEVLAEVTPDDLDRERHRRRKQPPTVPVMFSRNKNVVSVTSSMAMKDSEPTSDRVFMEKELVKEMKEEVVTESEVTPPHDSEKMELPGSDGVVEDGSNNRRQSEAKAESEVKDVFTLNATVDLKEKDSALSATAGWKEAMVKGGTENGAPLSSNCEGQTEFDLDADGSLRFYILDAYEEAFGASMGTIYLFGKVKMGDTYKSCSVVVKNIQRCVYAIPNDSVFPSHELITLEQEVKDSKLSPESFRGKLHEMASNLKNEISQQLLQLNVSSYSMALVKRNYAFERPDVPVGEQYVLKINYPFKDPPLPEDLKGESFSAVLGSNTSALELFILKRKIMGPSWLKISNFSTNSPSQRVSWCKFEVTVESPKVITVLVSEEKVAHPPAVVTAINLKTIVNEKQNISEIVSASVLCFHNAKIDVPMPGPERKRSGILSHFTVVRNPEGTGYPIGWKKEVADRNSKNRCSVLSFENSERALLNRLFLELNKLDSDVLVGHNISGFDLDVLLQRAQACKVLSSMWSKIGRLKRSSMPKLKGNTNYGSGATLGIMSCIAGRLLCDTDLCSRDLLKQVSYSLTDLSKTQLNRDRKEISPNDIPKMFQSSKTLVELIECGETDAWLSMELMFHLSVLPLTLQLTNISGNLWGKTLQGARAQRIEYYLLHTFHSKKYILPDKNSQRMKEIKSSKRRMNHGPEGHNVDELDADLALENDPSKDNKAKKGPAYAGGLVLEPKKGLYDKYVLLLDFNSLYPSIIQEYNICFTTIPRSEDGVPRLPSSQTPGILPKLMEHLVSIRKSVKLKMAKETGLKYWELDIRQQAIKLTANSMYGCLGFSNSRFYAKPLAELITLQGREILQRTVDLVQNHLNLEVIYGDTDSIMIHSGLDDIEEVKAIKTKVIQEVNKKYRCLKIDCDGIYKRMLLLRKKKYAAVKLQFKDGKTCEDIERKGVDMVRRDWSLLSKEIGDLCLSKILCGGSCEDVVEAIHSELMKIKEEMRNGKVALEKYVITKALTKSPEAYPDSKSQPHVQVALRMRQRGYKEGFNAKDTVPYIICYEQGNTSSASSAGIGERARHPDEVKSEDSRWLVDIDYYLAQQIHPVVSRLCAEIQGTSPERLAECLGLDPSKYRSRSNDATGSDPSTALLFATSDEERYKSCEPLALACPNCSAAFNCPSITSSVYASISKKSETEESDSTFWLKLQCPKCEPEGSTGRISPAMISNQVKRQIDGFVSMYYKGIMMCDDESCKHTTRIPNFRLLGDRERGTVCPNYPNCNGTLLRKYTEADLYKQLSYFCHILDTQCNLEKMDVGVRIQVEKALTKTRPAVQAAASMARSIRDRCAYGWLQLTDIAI
T5 sequence (P04415 whole entry): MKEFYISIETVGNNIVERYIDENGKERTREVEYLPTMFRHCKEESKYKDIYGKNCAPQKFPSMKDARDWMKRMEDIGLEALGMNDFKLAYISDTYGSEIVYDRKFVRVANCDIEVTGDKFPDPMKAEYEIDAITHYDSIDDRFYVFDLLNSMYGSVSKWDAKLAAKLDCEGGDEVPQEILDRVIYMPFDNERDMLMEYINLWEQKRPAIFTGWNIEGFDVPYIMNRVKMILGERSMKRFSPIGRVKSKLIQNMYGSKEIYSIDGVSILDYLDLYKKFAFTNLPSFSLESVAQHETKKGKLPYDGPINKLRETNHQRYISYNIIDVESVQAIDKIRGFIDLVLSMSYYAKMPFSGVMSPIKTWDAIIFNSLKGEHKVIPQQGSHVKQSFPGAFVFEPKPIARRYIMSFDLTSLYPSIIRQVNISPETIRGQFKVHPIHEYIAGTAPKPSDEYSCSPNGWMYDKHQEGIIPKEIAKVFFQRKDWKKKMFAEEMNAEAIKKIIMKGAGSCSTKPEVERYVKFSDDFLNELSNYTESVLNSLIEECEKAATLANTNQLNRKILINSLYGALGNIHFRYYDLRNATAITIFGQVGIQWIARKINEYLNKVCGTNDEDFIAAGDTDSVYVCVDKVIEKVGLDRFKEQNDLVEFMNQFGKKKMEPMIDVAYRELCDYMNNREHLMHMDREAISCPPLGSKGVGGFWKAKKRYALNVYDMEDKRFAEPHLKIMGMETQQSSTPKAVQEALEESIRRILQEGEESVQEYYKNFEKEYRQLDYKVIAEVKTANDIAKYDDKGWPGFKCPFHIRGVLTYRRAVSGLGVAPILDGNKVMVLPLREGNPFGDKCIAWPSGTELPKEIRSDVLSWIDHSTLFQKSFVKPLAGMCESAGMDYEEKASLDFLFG
T1 sequence (P00639 23-282): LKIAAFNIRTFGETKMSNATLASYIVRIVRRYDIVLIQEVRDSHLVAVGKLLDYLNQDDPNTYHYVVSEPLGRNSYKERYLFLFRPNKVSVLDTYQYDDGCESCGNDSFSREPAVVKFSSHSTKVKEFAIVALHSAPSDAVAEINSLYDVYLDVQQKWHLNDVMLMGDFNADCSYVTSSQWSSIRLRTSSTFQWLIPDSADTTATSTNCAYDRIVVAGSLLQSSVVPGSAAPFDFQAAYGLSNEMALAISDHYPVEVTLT
T3 sequence (P54358 whole entry): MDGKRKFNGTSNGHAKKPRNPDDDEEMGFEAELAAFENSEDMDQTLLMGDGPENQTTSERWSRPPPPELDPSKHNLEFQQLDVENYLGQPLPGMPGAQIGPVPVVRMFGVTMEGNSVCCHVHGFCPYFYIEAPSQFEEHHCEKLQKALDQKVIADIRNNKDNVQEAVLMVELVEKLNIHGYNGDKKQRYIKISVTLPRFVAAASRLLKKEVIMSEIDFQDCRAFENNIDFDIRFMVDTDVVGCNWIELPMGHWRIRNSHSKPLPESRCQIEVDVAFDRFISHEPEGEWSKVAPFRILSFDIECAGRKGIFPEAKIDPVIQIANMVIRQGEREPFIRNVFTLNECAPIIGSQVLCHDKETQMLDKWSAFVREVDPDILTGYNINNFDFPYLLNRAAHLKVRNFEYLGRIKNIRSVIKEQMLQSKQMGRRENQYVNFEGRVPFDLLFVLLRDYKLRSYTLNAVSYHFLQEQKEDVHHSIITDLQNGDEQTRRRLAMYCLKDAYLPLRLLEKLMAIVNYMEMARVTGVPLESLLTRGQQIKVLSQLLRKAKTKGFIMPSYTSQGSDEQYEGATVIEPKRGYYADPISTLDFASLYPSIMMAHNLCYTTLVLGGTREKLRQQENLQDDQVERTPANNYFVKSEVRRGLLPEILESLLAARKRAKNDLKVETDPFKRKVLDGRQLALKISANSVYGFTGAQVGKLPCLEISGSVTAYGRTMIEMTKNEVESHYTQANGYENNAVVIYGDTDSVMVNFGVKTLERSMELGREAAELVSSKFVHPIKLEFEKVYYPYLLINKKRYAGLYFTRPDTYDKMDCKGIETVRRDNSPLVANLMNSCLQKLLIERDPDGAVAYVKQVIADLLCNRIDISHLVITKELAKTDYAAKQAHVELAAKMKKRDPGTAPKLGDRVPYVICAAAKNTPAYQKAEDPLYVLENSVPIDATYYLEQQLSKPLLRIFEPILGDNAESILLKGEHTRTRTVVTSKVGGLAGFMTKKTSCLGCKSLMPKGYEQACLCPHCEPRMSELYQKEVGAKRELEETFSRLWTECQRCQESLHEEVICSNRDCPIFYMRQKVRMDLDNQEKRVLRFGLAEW
T9 sequence (P00582 324-928): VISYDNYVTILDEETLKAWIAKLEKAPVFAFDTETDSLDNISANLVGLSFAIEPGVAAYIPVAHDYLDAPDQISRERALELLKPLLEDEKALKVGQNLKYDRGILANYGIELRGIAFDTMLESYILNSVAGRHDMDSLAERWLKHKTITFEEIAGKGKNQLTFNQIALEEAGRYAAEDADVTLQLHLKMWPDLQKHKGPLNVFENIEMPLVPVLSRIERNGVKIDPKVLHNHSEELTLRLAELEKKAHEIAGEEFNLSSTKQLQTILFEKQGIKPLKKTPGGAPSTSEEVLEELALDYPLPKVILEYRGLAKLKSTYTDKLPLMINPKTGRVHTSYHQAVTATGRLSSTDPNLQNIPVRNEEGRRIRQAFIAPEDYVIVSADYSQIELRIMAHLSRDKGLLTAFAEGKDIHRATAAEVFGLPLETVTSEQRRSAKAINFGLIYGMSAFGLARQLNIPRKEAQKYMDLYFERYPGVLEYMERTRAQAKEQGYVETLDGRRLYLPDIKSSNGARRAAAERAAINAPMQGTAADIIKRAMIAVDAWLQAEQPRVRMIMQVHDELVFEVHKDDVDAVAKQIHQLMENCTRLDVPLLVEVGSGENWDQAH

With `CC(C)=CCC/C(C)=C/CC1=C(C)C(=O)c2ccccc2C1=O` [MK-2] the IC50 [1] was greater than 200 µM, the IC50 (Mouse DNA polymerase ι) was 39 ± 2.3 µM and the IC50 [2] was greater than 200 µM. It also gave an IC50 [3] of 36.9 ± 2.2 µM, an IC50 (Taq DNA polymerase) greater than 200 µM and an IC50 (T4 DNA polymerase) greater than 200 µM. The IC50 (T7 RNA polymerase) was greater than 200 µM, the “Decrease of LPS-induced serum TNF-α production” value [4] was 83.2% and the IC50 (Rat DNA polymerase β) was 31 ± 1.8 µM. It also gave an IC50 (Human DNA polymerase ɛ) of 28.2 ± 1.6 µM and an IC50 (E. coli DNA polymerase I) greater than 200 µM.
